Measurements as given in patent US10059655B2, “Lipids and lipid compositions for the delivery of active agents” (priority 2013, dated 2018).

Assays:
[1] = Measurement of siRNA encapsulation (SYBR Gold fluorescence); format: physicochemical; details: for % Encap.: FVII siRNA; for % encapsulation siRNA FVII: FVII siRNA in LNP
Description: The lipid nanoparticles (LNPs) were formed by mixing equal volumes of lipids dissolved in alcohol with siRNA dissolved in a citrate buffer by an impinging jet process. The lipid solution contains a cationic lipid compound of the invention, a helper lipid (cholesterol), an optional neutral lipid (DSPC) and a stealth lipid (S010, S024, S027, or S031) at a concentration of 8-16 mg/mL with a target of 12 mg/mL in an alcohol. The siRNA to total lipid ratio is approximately 0.05 (wt/wt). Where a LNP formulation contains four lipid components, the molar ratios of the lipids ranges from 20 to 70 mole percent for the cationic lipid with a target of 40-60, the mole percent of helper lipid ranges from 20 to 70 with a target of 30 to 50, the mole percent of neutral lipid ranges from 0-30, the mole percent of PEG lipid has a range from 1 to 6 with a target of 2 to 5. The concentration of siRNA solution ranges from 0.7 to 1.0 mg/mL with a target of 0.8 to 0.9 mg/mL in a sodium citrate: sodium chloride buffer pH 4-6, with a target of 4.5-5.5. The LNPs are formed by mixing equal volumes of lipid solution in ethanol with siRNA dissolved in a citrate buffer by an impinging jet process through a mixing device with ID ranging from 0.25 to 2.0 mm at a flow rate from 10 to 640 mL/min. The mixed LNP solution is held at room temperature for 0-24 hrs prior to a dilution step. The solution is then concentrated and diafiltered with suitable buffer by ultrafiltration process using membranes with a MW cutoff from 30 to 500 KD. The final product is sterile filtered and stored at 4° C.
SYBR Gold flourescence reagent is used for the determination of siRNA encapsulation in the DLP's. DLP's with and without triton x-100 are used to determine the free siRNA and total siRNA amounts. DLP's samples with and without triton X-100 were excited at 485 nm and flourescence emission is measured at 530 nm. Encapsulation efficiency is calculated based on the following formula: Encapsulation efficiency: [(free siRNA concentration−total siRNA concentration)/(total siRNA concentration)]×100% Encapsulation Data

hLeptin = experiment: Human leptin in mouse plasma (ELISA) after subcutaneous injection of encapsulated leptin mRNA; format: in vivo; details: C57 mice
Description: Human leptin in mouse plasma was measured by ELISA. Antibodies purchased from the R&D Systems duoset (Cat# DY398E, part#840279 for capture antibody and part#840280 for detection antibody) were reconstituted using PBS and titered, again using PBS. The capture antibody was coated at 4 ug/ml in 30 ul/well on a white Nunc® Maxisorp 384 well plate (Cat#460372). After an overnight incubation at room temperature the capture antibody was aspirated and the plate blocked for 2 hours at room temperature with 90 ul/well of KPL milk blocker (Cat#50-82-00). Once the incubation was completed the plate was aspirated and recombinant standards and samples were added to the plate at 30 ul/well for 2 hours at 37° C. while shaking at 600 rpm. Sample/standard dilutions were made using casein sample diluent. Washing/aspiration 3 times with 100 ul/well followed, using Teknova plate wash solution (Cat# P1192). […] The plate was quickly read using a SpectramaxM5 plate reader with a 50 ms integration time. […]
Prior to subcutaneous injection, mouse body weights were recorded and diet weighted, with mice grouped according to their body weights. […]
On day 0, animals were weighed and sorted according to average body weight. ice were dosed at 9 AM and blood was taken at 9 AM on day 0. Blood was also taken at 9 AM on each of days 1 and 2 and assessed for leptin protein levels. Body weight and food intake were also recorded.

[2] = Percentage of encapsulated RNA and RNA concentration of replicon liposomes (Quant-iT RiboGreen); format: physicochemical; details: for %E (% entrapment) 1st IM / Conc (Concentration of RNA) 1st IM: RSV-F replicon RNA LNP prepared for 1st immunization; for %E (% entrapment) 2nd IM / Conc (Concentration of RNA) 2nd IM: RSV-F replicon RNA LNP prepared for 2nd immunization
Description: RNA was encapsulated in liposomes made essentially by the method of Geall et al. (2012) PNAS vol. 109 (36): 14604-14609, Jeffs et al. (2005) Pharmaceutical Research 22 (3):362-372, and Maurer et al. (2001) Biophysical Journal, 80: 2310-2326 The liposomes were made of 10% DSPC (zwitterionic), 40% cationic lipid, 48% cholesterol and 2% PEG-conjugated DMG (2 kDa PEG). These proportions refer to the % moles in the total liposome.
Briefly, lipids were dissolved in ethanol (2 ml), a RNA replicon was dissolved in buffer (2 ml, 100 mM sodium citrate, pH 6) and these were mixed with 2 ml of buffer followed by 1 hour of equilibration. The mixture was then dialized overnight against 1×PBS. The resulting product contained liposomes, with ˜70-95% encapsulation efficiency. For in vitro and in vivo experiments formulations were diluted to the required RNA concentration with 1×PBS.
The percentage of encapsulated RNA and RNA concentration were determined by Quant-iT RiboGreen RNA reagent kit (Invitrogen), following manufacturer's instructions. The ribosomal RNA standard provided in the kit was used to generate a standard curve. Liposomes were diluted 10× or 100× in 1×TE buffer (from kit) before addition of the dye. Separately, liposomes were diluted 10× or 100× in 1×TE buffer containing 0.5% Triton X before addition of the dye (to disrupt the liposomes and thus to assay total RNA). Thereafter an equal amount of dye was added to each solution and then ˜180 μL of each solution after dye addition was loaded in duplicate into a 96 well tissue culture plate. The fluorescence (Ex 485 nm, Em 528 nm) was read on a microplate reader. All liposome formulations were dosed in vivo based on the encapsulated amount of RNA.
% entrapment (% E), Concentration of RNA (Conc), particle size measured by DLS, and polydispersity reported by DLS of LNPs prepared with different cationic lipids

Row | Compound | % Encap. [1] [%] | % encapsulation siRNA FVII [1] [%] | Expression of protein following SC injection of encapsulated mRNA: hLeptin (hLeptin; 0.4 mpk) [ng/mL] | %E (% entrapment) 1st IM [2] [%] | Conc (Concentration of RNA) 1st IM [2] [ng/mL] | %E (% entrapment) 2nd IM [2] [%] | Conc (Concentration of RNA) 2nd IM [2] [ng/mL] | Expression of protein following SC injection of encapsulated mRNA: hLeptin (hLeptin; 0.6 mpk) [ng/mL]
1 | CCCCC/C=C\C/C=C\CCCCCCCC(=O)OCC(COC(=O)CCCCCCC/C=C\C/C=C\CCCCC)COC(=O)C1(C)CCN(C)C1 (centres unmarked) [Example 1, (9Z,9′Z,12Z,12′Z)-2-(((1,3-dimethylpyrrolidine-3-carbonyl)oxy)methyl)propane-1,3-diyl bis(octadeca-9,12-dienoate)] | 85.1 | 85.1 | 2.5 | 96.21 | 10352 | 91.99 | 11279 | 
2 | CCCCC/C=C\C/C=C\CCCCCCCC(=O)OCC(COC(=O)CCC(OCCCCCCCC)OCCCCCCCC)COC(=O)OCCCN(CC)CC (centres unmarked) [Example 13, (9Z,12Z)-3-((4,4-bis(octyloxy)butanoyl)oxy)-2-((((3-(diethylamino)propoxy)carbonyl)oxy)methyl)propyl octadeca-9,12-dienoate] | 88.1 | 88.1 |  |  |  |  |  | 
3 | CCCCC/C=C\C/C=C\CCCCCCCC(=O)OCC(COC(=O)CCC(OCCCCCCCC)OCCCCCCCC)COC(=O)OCC1CCCN(CC)C1 (centres unmarked) [Example 15, (9Z,12Z)-3-((4,4-bis(octyloxy)butanoyl)oxy)-2-(((((1-ethylpiperidin-3-yl)methoxy)carbonyl)oxy)methyl)propyl octadeca-9,12-dienoate] |  |  |  | 94.26 | 10203 | 96.64 | 10091 | 6.2
